According to PubChem BioAssay AID1919014 (Molecular Pharmacology Branch, DTP, NCI, 2023):
Several values for one entry are separate records, joined by “and”; a condition that tells them apart may be missing. Identical values can stand only once.

Test system: NCI-H1341 complex spheroids, percent test/control
Assay: Anticancer human tumor NCI-H1341 cell line growth inhibition [AhR];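 note: spheroids exposed to agents for seven days before readout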
Conditions: for viability, T/C: stronger effect = lower value; active = viability on the fitted dose curve at most 10% of control; inactive = the rest
Outline: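 Complex tumor spheroids co-cultured with HUVEC and human MSC stroma; AhR antagonists tested in combination with standard-of-care and investigational agents. Top concentration at or near clinical Cmax (else 10 microM), half-log dilutions; growth expressed as percent test/control.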

[1] = curve of first compound, second compound 0.1 µM
[2] = curve of first compound, second compound 0.316 µM
[3] = curve of first compound, second compound 1 µM
[4] = curve of first compound, second compound 3.16 µM
[5] = curve of first compound, second compound 10 µM
[6] = second compound 0.1 µM, first compound 0.00316 µM
[7] = second compound 0.1 µM, first compound 0.01 µM
[8] = second compound 0.1 µM, first compound 0.0316 µM
[9] = second compound 0.1 µM, first compound 0.1 µM
[10] = second compound 0.1 µM, first compound 0.316 µM
[11] = second compound 0.1 µM, first compound 1 µM
[12] = second compound 0.316 µM, first compound 0.00316 µM
[13] = second compound 0.316 µM, first compound 0.01 µM
[14] = second compound 0.316 µM, first compound 0.0316 µM
[15] = second compound 0.316 µM, first compound 0.1 µM
[16] = second compound 0.316 µM, first compound 0.316 µM
[17] = second compound 0.316 µM, first compound 1 µM
[18] = second compound 1 µM, first compound 0.00316 µM
[19] = second compound 1 µM, first compound 0.01 µM
[20] = second compound 1 µM, first compound 0.0316 µM
[21] = second compound 1 µM, first compound 0.1 µM
[22] = second compound 1 µM, first compound 0.316 µM
[23] = second compound 1 µM, first compound 1 µM
[24] = second compound 3.16 µM, first compound 0.00316 µM
[25] = second compound 3.16 µM, first compound 0.01 µM
[26] = second compound 3.16 µM, first compound 0.0316 µM
[27] = second compound 3.16 µM, first compound 0.1 µM
[28] = second compound 3.16 µM, first compound 0.316 µM
[29] = second compound 3.16 µM, first compound 1 µM
[30] = second compound 10 µM, first compound 0.00316 µM
[31] = second compound 10 µM, first compound 0.01 µM
[32] = second compound 10 µM, first compound 0.0316 µM
[33] = second compound 10 µM, first compound 0.1 µM
[34] = second compound 10 µM, first compound 0.316 µM
[35] = second compound 10 µM, first compound 1 µM

O=C(c1cc(Cc2n[nH]c(=O)c3ccccc23)ccc1F)N1CCN(C(=O)C2CC2)CC1
> 10 µM: IC50 (curve of compound)
inactive: viability, T/C (compound 0.0316 µM) 97.7% and 93.7% and 111% | viability, T/C (compound 0.1 µM) 100% and 83.7% and 108% | viability, T/C (compound 0.316 µM) 105% and 87.7% and 90.6% | viability, T/C (compound 1 µM) 95.6% and 88% and 110% | viability, T/C (compound 3.16 µM) 102% and 86.6% and 83.1% | viability, T/C (compound 10 µM) 76.6% and 70.3% and 83.6%

Nc1ccn(C2OC(CO)C(O)C2(F)F)c(=O)n1 (stereo unspecified)
< 0.0316 µM: IC50 (curve of compound)
inactive: viability, T/C (compound 0.0316 µM) 27.5% and 32.2% and 32.9% | viability, T/C (compound 0.1 µM) 26.6% and 28.1% and 35.2% | viability, T/C (compound 0.316 µM) 24.2% and 25.8% and 36.1% | viability, T/C (compound 1 µM) 24.8% and 27.9% and 31.6% | viability, T/C (compound 3.16 µM) 23.1% and 24.4% and 33.5% | viability, T/C (compound 10 µM) 21.6% and 21.2% and 32.3%

Nc1ncn(C2CC(O)C(CO)O2)c(=O)n1 (stereo unspecified) + Cc1ccccc1N=Nc1ccc(NC(=O)c2ccnn2C)c(C)c1
0.763 µM: IC50 [4]
0.135 µM: IC50 [5]
inactive: viability, T/C [6] 102% | viability, T/C [7] 103% | viability, T/C [8] 84.1% | viability, T/C [9] 63.7% | viability, T/C [10] 59.6% | viability, T/C [11] 51% | viability, T/C [12] 102% | viability, T/C [13] 101% | viability, T/C [14] 100% | viability, T/C [15] 79.2% | viability, T/C [16] 53.8% | viability, T/C [17] 51% | viability, T/C [18] 100% | viability, T/C [19] 97% | viability, T/C [20] 81% | viability, T/C [21] 60.2% | viability, T/C [22] 63% | viability, T/C [23] 54.5% | viability, T/C [24] 81.4% | viability, T/C [25] 77% | viability, T/C [26] 68.5% | viability, T/C [27] 61.8% | viability, T/C [28] 53.1% | viability, T/C [29] 49.7% | viability, T/C [30] 70.6% | viability, T/C [31] 54.9% | viability, T/C [32] 61.8% | viability, T/C [33] 49.9% | viability, T/C [34] 47.8% | viability, T/C [35] 42.1%
> 1 µM: IC50 [1] | IC50 [2] | IC50 [3]

Nc1ncn(C2CC(O)C(CO)O2)c(=O)n1 (stereo unspecified) + CC(CO)NC(=O)c1cc(-c2ccc(Cl)cc2)nn(-c2cnn(C)c2)c1=O
0.215 µM: IC50 [5]
0.154 µM: IC50 [1]
0.179 µM: IC50 [2]
0.0853 µM: IC50 [3]
inactive: viability, T/C [6] 76.5% | viability, T/C [7] 85.7% | viability, T/C [8] 81.8% | viability, T/C [9] 59.3% | viability, T/C [10] 34.2% | viability, T/C [11] 26.6% | viability, T/C [12] 92.1% | viability, T/C [13] 99% | viability, T/C [14] 85.2% | viability, T/C [15] 61.8% | viability, T/C [16] 39.1% | viability, T/C [17] 31.8% | viability, T/C [18] 92.2% | viability, T/C [19] 86.3% | viability, T/C [20] 81.3% | viability, T/C [21] 45% | viability, T/C [22] 32.5% | viability, T/C [23] 33.7% | viability, T/C [24] 79.8% | viability, T/C [25] 65.6% | viability, T/C [26] 67.1% | viability, T/C [27] 66.3% | viability, T/C [28] 40.6% | viability, T/C [29] 30.9% | viability, T/C [30] 82.1% | viability, T/C [31] 69.6% | viability, T/C [32] 79.8% | viability, T/C [33] 67.5% | viability, T/C [34] 41% | viability, T/C [35] 27.2%
0.207 µM: IC50 [4]

CC[C@@]1(O)C(=O)OCc2c1cc1n(c2=O)Cc2cc3c(CN(C)C)c(O)ccc3nc2-1
0.0299 µM and 0.0568 µM and 0.0713 µM: IC50 (curve of compound)
inactive: viability, T/C (compound 0.000316 µM) 89.2% and 92.2% and 98.9% | viability, T/C (compound 0.001 µM) 94.4% and 86.7% and 107% | viability, T/C (compound 0.00316 µM) 89.6% and 91.8% and 112% | viability, T/C (compound 0.01 µM) 80.9% and 79.7% and 87.2% | viability, T/C (compound 0.0316 µM) 48.4% and 65.8% and 57.3% | viability, T/C (compound 0.1 µM) 35.3% and 35% and 46.5%
